Data published in patent publication US8822705B2, “Pharmaceutical composition for preventing and/or treating bone disease, functional food or health food and pharmaceutical preparation comprising thereof as active ingredient” (priority 2006, dated 2014).
“Also recorded” adds a separate entry of the source.

Experiments:
MC3T3-E1 cells [1] = assay: Cytotoxicity by Cell Counting kit-8 or MTT (total cell numbers); assay type: cell-based, mouse; settings: for cell number decreasing (cytotoxicity): by 30 μM
Protocol: After incubation of the same condition as described above, cytotoxicity was measured by using the Cell counting kit-8 or MTT according to the conventional method.
Cytotoxicity was measured by using Cell Counting kit-8 or MTT according to conventional method, after MC3T3-E1 was incubated in the same conditions as (2) described above.

MC3T3-E1 cells [2] = assay: Osteoblast differentiation, ALP activity in MC3T3-E1 cells; assay type: cell-based, mouse; settings: incubated 7 to 21 days with test sample, absorbance at 405 nm, FIGS. 1A to 1D
Protocol: (§1) MC3T3-E1 cells, pre-osteoblast cells, were suspended in α-MEM and plated in each well of the 96 well-microplate with 4×10^3 cells/well. Then, they were pre-incubated for 2 days at 37° C., 5% CO2 incubator. On day 3 from the beginning of the pre-incubation, culture medium in the wells were changed to α-MEM containing each concentration of test sample, 50 μg/mL of ascorbic acid and 10 mM β-glycerophosphoric acid, and then incubated for 7 to 21 days. In the incubation, the culture medium in the wells was exchanged in every 3 or 4 days.
After the incubation period, the cells were fixed by using methanol. After drying the dish, activity of alkaline phosphatase (ALP), a marker enzyme of early stage osteoblast differentiation, was measured, and subjected to ALP staining.
In the measurement of ALP activity, a buffer containing 6.7 mM p-nitrophenylphosphate as a substrate, supplemented 2 mM magnesium chloride and 100 mM tris-HCl, pH 8.5. 100 μL of the buffer was plated in each well, incubated in 30 minutes at 37° C. Then, 100 μl of 0.1 N sodium hydroxide was added to the wells to terminate the reaction. After that, the absorbance at 405 nm was measured by using the plate reader and the absorbance value was used as ALP activity.
In ALP staining, the buffer containing 0.1 mg/ml naphtol AS-MX phosphate, 0.6 mg/ml fast blue BB salt, supplemented 2 mM magnesium chloride and 10 mM tris-HCl pH 8.5 was used. 50 μL of the buffer was added to each well of the 96 well-microplate and incubated for 30 minutes to 1 hour to stain.

MC3T3-E1 cells [3] = assay: Calcification of calcium by osteoblast, Alizarin red S staining; assay type: cell-based, mouse
Protocol: as §1
Calcification of osteoblast cells were confirmed by Alizarin red S staining.
Effects of the above-mentioned four compounds and glycosides to the calcification of calcium by osteoblast were shown in FIG. 5.

[4] = test system: excised first molar of C57BL/6 mice grafted under capsule of kidney; assay: Graft culture of excised tooth with impregnated agarose beads under kidney capsule, alveolar bone formation; assay type: in vivo, mouse; settings: three agarose beads impregnated in 100 μM acerogenin A embedded into dental pulp, 3 weeks graft culture, compared to D-PBS bead negative control; FIG. 4B
Protocol: Agarose beads impregnated in acerogenin A (hereinbelow, it is referred to as “acerogenin A-impregnated beads”) were prepared as follows. acerogenin A was diluted to 100 μM (at final concentration) by using D-PBS. Affi-Gel agarose beads were washed by using PBS. Washed agarose beads were placed in the 1.5 mL Eppendorf tube with flat bottom and 100 μL of the acerogenin A solution was added into it. Then, the tube was incubated at room temperature for 45 minutes to impregnated acerogenin A into the agarose beads. Acerogenin-impregnated agarose beads obtained were used for embedding under dental pulp in below.
Alternatively, as negative control, agarose beads similarly to prepare the acerogenin A-impregnated beads but impregnated in D-PBS without acerogenin A (hereinbelow, it is referred to as “D-PBS-impregnated beads”) were used.
Five days age of […] mice, where their dental roots-periodontal tissue was just before formed, were anesthetized and sacrificed by decapitation. After excised lower jaw of them, the first molars in the lower jaw were excised with dental follicles. For the test group, three acerogenin A-impregnated agarose beads were embedded into the dental pulp of the excised teeth, the first molar in the lower jaw. […]

Row | SMILES | cell number decreasing (cytotoxicity) (MC3T3-E1 cells [1]; FIGS. 2B and D) | cell numbers (cytotoxicity) (MC3T3-E1 cells [1]; by 100 μM, FIGS. 2B and D) | ALP activity (early stage osteoblast differentiation) (MC3T3-E1 cells [2]) | calcification activity level of calcium, rank order (MC3T3-E1 cells [3]) | cell numbers (cytotoxicity) (MC3T3-E1 cells [1]; FIGS. 2A and C) | cell numbers (cytotoxicity) at high concentration (MC3T3-E1 cells [1]; FIGS. 2A and C) | alveolar bone formation of grafted tooth [4]
1 | Oc1ccc2cc1Oc1ccc(cc1)CCCC[C@@H](O)CC2 [(R)-acerogenin B, 2-Oxatricyclo[13.2.2.13,7]eicosa-3,5,7(20),15,17,18-hexaene-4,10-diol, (10R)-(9CI)] | not observed | not affected | enhanced ALP activity | (R)-acerogenin B>aceroside I≅acerogenin A>aceroside B1 |  |  | 
2 | Oc1ccc2cc1Oc1ccc(cc1)CC[C@H](O)CCCC2 [acerogenin A, 2-Oxatricyclo[13.2.2.13,7]eicosa-3,5,7 (20),15,17,18-hexaene-4,12-diol, (12R)-(9CI)] |  |  | enhanced ALP activity | (R)-acerogenin B>aceroside I≅acerogenin A>aceroside B1 | not affected | slightly decreased | prominent extension of alveolar bone formation
3 | OC[C@H]1O[C@@H](Oc2ccc3cc2Oc2ccc(cc2)CCCC[C@@H](O)CC3)[C@H](O)[C@@H](O)[C@@H]1O [aceroside B1, α-D-Glucopyranoside,(10R)-10-hydroxy-2-oxatricyclo[13.2.2.13,7]eicosa-3,5,7(20),15,17,18-hexaen-4-yl (9CI)] | not observed | not affected | enhanced ALP activity | (R)-acerogenin B>aceroside I≅acerogenin A>aceroside B1 |  |  | 
4 | OC[C@H]1O[C@H](Oc2ccc3cc2Oc2ccc(cc2)CC[C@@H](O)CCCC3)[C@H](O)[C@@H](O)[C@@H]1O [aceroside I, α-D-Glucopyranoside, (12S)-12-hydroxy-2-oxatricyclo[13.2.2.13,7]eicosa-3,5,7(20),15,17,18-hexaen-4-yl (9CI)] |  |  | enhanced ALP activity; also recorded: dose-dependently enhanced | (R)-acerogenin B>aceroside I≅acerogenin A>aceroside B1 | not affected | slightly decreased | 
